Measured values taken from patent US7888349B2, “Piperazine, [1,4]Diazepane, [1,4]Diazocane, and [1,5]Diazocane fused imidazo ring compounds” (3M Innovative Properties Company, priority 2003, dated 2011).
Where a name gives a salt, the structure may show the parent alone.

melting point | SMILES
242 to 243 °C | CS(=O)(=O)N1CCn2c(nc3c(N)nc4ccccc4c32)C1 (as salt: trifluoroacetate) [Example 5, 9-(Methylsulfonyl)-8,9,10,11-tetrahydropyrazino[1′,2′:1,2]imidazo[4,5-c]quinolin-6-amine trifluoroacetate]
250 to 250.9 °C | CS(=O)(=O)N1CCCn2c(nc3c(N)nc4ccccc4c32)C1 (as salt: trifluoroacetate) [Example 7, 9-(Methylsulfonyl)-9,10,11,12-tetrahydro-8H-[1,4]diazepino[1′,2′:1,2]imidazo[4,5-c]quinolin-6-amine trifluoroacetate]
256 to 258 °C | CC(C)(C)[Si](C)(C)OC1CN(S(C)(=O)=O)Cc2nc3c(N)nc4ccccc4c3n2C1 (centres unmarked) [Example 1, 11-{[tert-Butyl(dimethyl)silyl]oxy}-9-(methylsulfonyl)-9,10,11,12-tetrahydro-8H-[1,4]diazepino[1′,2′:1,2]imidazo[4,5-c]quinolin-6-amine]
282 to 283 °C | CS(=O)(=O)N1Cc2nc3c(N)nc4ccccc4c3n2CC(O)C1 (centres unmarked) [Example 2, 6-Amino-9-(methylsulfonyl)-9,10,11,12-tetrahydro-8H-[1,4]diazepino[1′,2′:1,2]imidazo[4,5-c]quinolin-11-ol]
227 to 228 °C | CC1(C)Cn2c(nc3c(N)nc4ccccc4c32)CN1S(C)(=O)=O [Example 3, 10,10-Dimethyl-9-(methylsulfonyl)-8,9,10,11-tetrahydropyrazino[1′,2′:1,2]imidazo[4,5-c]quinolin-6-amine]
207 °C | CC(C)(C)OC(=O)N1CCn2c(nc3c(N)nc4ccccc4c32)C1 [Example 4, tert-Butyl 6-amino-10,11-dihydropyrazino[1′,2′:1,2]imidazo[4,5-c]quinoline-9(8H)-carboxylate]
213 °C | CC(C)(C)OC(=O)N1CCCn2c(nc3c(N)nc4ccccc4c32)C1 [Example 6, tert-Butyl 6-amino-11,12-dihydro-8H-[1,4]diazepino[1′,2′:1,2]imidazo[4,5-c]quinoline-9(10H)-carboxylate]
280 °C | CS(=O)(=O)N1CCCn2c(nc3c(N)nc4ccccc4c32)C1 [Example 8, 9-(Methylsulfonyl)-9,10,11,12-tetrahydro-8H-[1,4]diazepino[1′,2′:1,2]imidazo[4,5-c]quinolin-6-amine]
270 to 272 °C | CS(=O)(=O)N1CCCn2c(nc3c(N)nc4c(c32)CCCC4)C1 [Example 363, 9-(Methylsulfonyl)-2,3,4,8,9,10,11,12-octahydro-1H-[1,4]diazepino[1′,2′:1,2]imidazo[4,5c]quinolin-6-amine]
303 °C | CS(=O)(=O)N1CCCn2c(nc3c(N)nc4cc(Br)ccc4c32)C1 [Example 365, 3-Bromo-9-(methylsulfonyl)-9,10,11,12-tetrahydro-8H-[1,4]diazepino[1′,2′:1,2]imidazo[4,5-c]quinolin-6-amine]
302 °C | CS(=O)(=O)N1CCCn2c(nc3c(N)nc4cc(-c5cccnc5)ccc4c32)C1 [Example 366, 9-(Methylsulfonyl)-3-pyridin-3-yl-9,10,11,12-tetrahydro-8H-[1,4]diazepino[1′,2′:1,2]imidazo[4,5-c]quinolin-6-amine]
315 to 317 °C | CS(=O)(=O)N1CCn2c(nc3c(N)nc4cc(Br)ccc4c32)C1 [Example 367, 3-Bromo-9-(methylsulfonyl)-8,9,10,11-tetrahydropyrazino[1′,2′:1,2]imidazo[4,5-c]quinolin-6-amine]
266 to 268 °C | CS(=O)(=O)N1CCn2c(nc3c(N)nc4cc(OCc5ccccc5)ccc4c32)C1 [Example 368, 3-(Benzyloxy)-9-(methylsulfonyl)-8,9,10,11-tetrahydropyrazino[1′,2′:1,2]imidazo[4,5-c]quinolin-6-amine]
235 to 236 °C | CS(=O)(=O)N1CCCn2c(nc3c(N)nc4cc(OCc5ccccc5)ccc4c32)C1 [Example 369, 3-(Benzyloxy)-9-(methylsulfonyl)-9,10,11,12-tetrahydro-8H-[1,4]diazepino[1′,2′:1,2]imidazo[4,5-c]quinolin-6-amine]
